Laboratory results reported in PubChem BioAssay AID296 (DTP/NCI, 2004).
Several values for one entry are separate records, joined by “and”; a condition that tells them apart may be missing. Equal values may be shown once. Records with an inconclusive call do not appear.

System: MX-1 breast xenograft, nude mice, tumor weight T/C
Assay: NCI In Vivo Anticancer Drug Screen. Data for tumor model Human Mammary Carcinoma MX-1 Xenograft (intrarenal inoculation) in NU/NU Swiss (nude) mice
Details: endpoint: mean tumor weight change, higher = larger tumour
Procedure, shortened: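 Read-out: treated (T) over vehicle control (C) ratio of survival or tumor size. Dosing in animals carrying the transplanted tumor.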

[1] = dose: 600.0 mg/kg/injection, schedule: Q04DX003 (sc), vehicle: Klucel (hydroxypropylcellulose) (HPC)
[2] = dose: 1200.0 mg/kg/injection, schedule: Q04DX003 (sc), vehicle: Klucel (hydroxypropylcellulose) (HPC)
[3] = dose: 4.0 mg/kg/injection, schedule: Q01DX010 (sc), vehicle: water
[4] = dose: 300.0 mg/kg/injection, schedule: Q04DX003 (sc), vehicle: Klucel (hydroxypropylcellulose) (HPC)
[5] = dose: 2400.0 mg/kg/injection, schedule: Q04DX003 (sc), vehicle: Klucel (hydroxypropylcellulose) (HPC)

In the case of `BrC[P+](CBr)(CBr)CBr`, the T/C (dose: 100.0 mg/kg/injection, schedule: Q04DX003 (sc), vehicle: saline with Tween-80) was 105 % of control, the T/C (dose: 200.0 mg/kg/injection, schedule: Q04DX003 (sc), vehicle: saline with Tween-80) was 117 % of control and the T/C (dose: 400.0 mg/kg/injection, schedule: Q04DX003 (sc), vehicle: saline with Tween-80) was 111 % of control.
In the case of `O=C1NC(c2ccccc2)N=C2Oc3ccccc3C=C12` (stereo not given), the T/C (dose: 50.0 mg/kg/injection, schedule: Q01DX008 (sc), vehicle: saline with Tween-80) was 57 % of control, the T/C (dose: 100.0 mg/kg/injection, schedule: Q01DX008 (sc), vehicle: saline with Tween-80) was 71 % of control and the T/C (dose: 200.0 mg/kg/injection, schedule: Q01DX008 (sc), vehicle: saline with Tween-80) was 56 % of control. The T/C (dose: 400.0 mg/kg/injection, schedule: Q01DX008 (sc), vehicle: saline with Tween-80) was 80 % of control.
With `Clc1ccc(C2SC=Cc3ccccc32)cc1` (stereo not given) the T/C [1] was 90 % of control and the T/C [2] was 115 % of control.
`CC(=O)OCN(C)C=O` was tested, and the T/C (dose: 300.0 mg/kg/injection, schedule: Q01DX010 (sc), vehicle: water) was 100 % of control, the T/C (dose: 600.0 mg/kg/injection, schedule: Q01DX010 (sc), vehicle: water) was 54 % of control and the T/C (dose: 1200.0 mg/kg/injection, schedule: Q01DX010 (sc), vehicle: water) was 18 % of control. The T/C (dose: 2400.0 mg/kg/injection, schedule: Q01DX010 (sc), vehicle: water) was -8 % of control.
In the case of `Nc1ncnc2c1nnn2C1OC(CO)C(O)C1O` (stereo not given), the T/C (dose: 18.75 mg/kg/injection, schedule: Q04DX003 (sc), vehicle: Klucel (hydroxypropylcellulose) (HPC)) was 76 % of control and 80 % of control.
`CC1CN1C(=O)NCCCCCCNC(=O)N1CC1C` (stereo not given) was tested, and the T/C (dose: 5.0 mg/kg/injection, schedule: Q04DX003 (sc), vehicle: Klucel (hydroxypropylcellulose) (HPC)) was 21 % of control and the T/C (dose: 40.0 mg/kg/injection, schedule: Q04DX003 (sc), vehicle: Klucel (hydroxypropylcellulose) (HPC)) was -86 % of control and -63 % of control.
In the case of `CC1=C(C)C(=O)O[C@@H]([C@](C)(O)[C@]2(O)CC[C@@]3(O)[C@@H]4C[C@H]5O[C@]56CC=CC(=O)[C@]6(C)[C@H]4CC[C@]23C)C1`, the T/C (dose: 75.0 mg/kg/injection, schedule: Q04DX003 (sc), vehicle: suspension in saline) was 112 % of control, the T/C (dose: 150.0 mg/kg/injection, schedule: Q04DX003 (sc), vehicle: suspension in saline) was 83 % of control and the T/C (dose: 300.0 mg/kg/injection, schedule: Q04DX003 (sc), vehicle: suspension in saline) was 83 % of control. For the same compound, the T/C (dose: 600.0 mg/kg/injection, schedule: Q04DX003 (sc), vehicle: suspension in saline) was 95 % of control.
`N=C(N)Sc1cc(O)ccc1O` was tested, and the T/C (dose: 37.5 mg/kg/injection, schedule: Q04DX003 (sc), vehicle: saline) was 96 % of control, the T/C (dose: 75.0 mg/kg/injection, schedule: Q04DX003 (sc), vehicle: saline) was 106 % of control and the T/C (dose: 150.0 mg/kg/injection, schedule: Q04DX003 (sc), vehicle: saline) was 79 % of control. The T/C (dose: 300.0 mg/kg/injection, schedule: Q04DX003 (sc), vehicle: saline) was 90 % of control.
`COc1ccc(S(=O)(=O)N/N=C/C(=O)O)cc1` was tested, and the T/C (dose: 12.5 mg/kg/injection, schedule: Q01DX010 (sc), vehicle: saline with Tween-80) was 116 % of control.
In the case of `CC(=O)c1cccc(NC2C(N)C(NC(=O)N(C)C)(C(C)O)C(C)(O)C2(O)COC(=O)c2c(C)cccc2O)c1` (stereo not given), the T/C (dose: 6.25 mg/kg/injection, schedule: Q04DX003 (ip), vehicle: suspension in saline) was 62 % of control, the T/C (dose: 12.5 mg/kg/injection, schedule: Q04DX003 (ip), vehicle: suspension in saline) was 85 % of control and the T/C (dose: 25.0 mg/kg/injection, schedule: Q04DX003 (ip), vehicle: suspension in saline) was 34 % of control.
In the case of `CC(=O)NCCCCCCNC(C)=O`, the T/C (dose: 50.0 mg/kg/injection, schedule: Q01DX010 (sc), vehicle: saline) was 163 % of control, the T/C (dose: 100.0 mg/kg/injection, schedule: Q01DX010 (sc), vehicle: saline) was 124 % of control and the T/C (dose: 200.0 mg/kg/injection, schedule: Q01DX010 (sc), vehicle: saline) was 103 % of control and 111 % of control. The T/C (dose: 400.0 mg/kg/injection, schedule: Q01DX010 (sc), vehicle: saline) was 84 % of control, the T/C (dose: 800.0 mg/kg/injection, schedule: Q01DX010 (sc), vehicle: saline) was 88 % of control and the T/C (dose: 1600.0 mg/kg/injection, schedule: Q01DX010 (sc), vehicle: saline) was 78 % of control and 103 % of control. The T/C (dose: 3200.0 mg/kg/injection, schedule: Q01DX010 (sc), vehicle: saline) was 104 % of control and the T/C (dose: 6400.0 mg/kg/injection, schedule: Q01DX010 (sc), vehicle: saline) was 58 % of control.
`CCCCc1ccc(-n2c(C)c(COC(=O)NC)c(COC(=O)NC)c2C)cc1` was tested, and the T/C (dose: 12.5 mg/kg/injection, schedule: Q01DX010 (sc), vehicle: Klucel (hydroxypropylcellulose) (HPC)) was 114 % of control, the T/C (dose: 25.0 mg/kg/injection, schedule: Q01DX010 (sc), vehicle: Klucel (hydroxypropylcellulose) (HPC)) was 84 % of control and the T/C (dose: 50.0 mg/kg/injection, schedule: Q01DX010 (sc), vehicle: Klucel (hydroxypropylcellulose) (HPC)) was 34 % of control. The T/C (dose: 100.0 mg/kg/injection, schedule: Q01DX010 (sc), vehicle: Klucel (hydroxypropylcellulose) (HPC)) was 77 % of control.
`O=NN(CCCl)C(=O)NCCCl` was tested, and the T/C (dose: 2.0 mg/kg/injection, schedule: Q01DX010 (sc), vehicle: saline) was 74 % of control, the T/C (dose: 4.0 mg/kg/injection, schedule: Q01DX010 (sc), vehicle: saline) was 76 % of control and the T/C (dose: 4.0 mg/kg/injection, schedule: Q01DX010 (sc), vehicle: suspension in saline) was 80 % of control. The T/C (dose: 7.5 mg/kg/injection, schedule: Q04DX003 (sc), vehicle: suspension in saline) was 80 % of control, the T/C (dose: 8.0 mg/kg/injection, schedule: Q01DX010 (sc), vehicle: saline) was 56 % of control and the T/C (dose: 8.0 mg/kg/injection, schedule: Q01DX010 (sc), vehicle: suspension in saline) was 44 % of control. For the same compound, the T/C (dose: 15.0 mg/kg/injection, schedule: Q04DX003 (sc), vehicle: suspension in saline) was 37 % of control and 52 % of control, the T/C (dose: 16.0 mg/kg/injection, schedule: Q01DX010 (sc), vehicle: suspension in saline) was 2 % of control and the T/C (dose: 32.0 mg/kg/injection, schedule: Q01DX010 (sc), vehicle: saline) was 2 % of control.
`COc1cccc2c1C(=O)c1c(O)c3c(c(O)c1C2=O)C[C@@](O)(C(C)=O)C[C@@H]3OC1CC(N(C)C)C(O)C(C)O1` (stereo not given in full) was tested, and the T/C (dose: 2.0 mg/kg/injection, schedule: Q01DX010 (sc), vehicle: water) was 293 % of control and the T/C [3] was 120 % of control.
For `CC(=O)OC1COC(NC(=O)N(CCCl)N=O)C(OC(C)=O)C1OC(C)=O` (stereo not given), the T/C (dose: 4.5 mg/kg/injection, schedule: Q04DX003 (sc), vehicle: saline with Tween-80) was 105 % of control, the T/C (dose: 9.0 mg/kg/injection, schedule: Q04DX003 (sc), vehicle: saline with Tween-80) was 77 % of control and the T/C (dose: 18.0 mg/kg/injection, schedule: Q04DX003 (sc), vehicle: saline with Tween-80) was 110 % of control. For the same compound, the T/C (dose: 36.0 mg/kg/injection, schedule: Q04DX003 (sc), vehicle: saline with Tween-80) was 82 % of control.
With `N#CC(=C1C=CC(=NO)C=C1)c1ccc(Cl)cc1` the T/C (dose: 150.0 mg/kg/injection, schedule: Q04DX003 (sc), vehicle: saline with Tween-80) was 89 % of control, the T/C (dose: 300.0 mg/kg/injection, schedule: Q04DX003 (sc), vehicle: saline with Tween-80) was 122 % of control and the T/C (dose: 600.0 mg/kg/injection, schedule: Q04DX003 (sc), vehicle: saline with Tween-80) was 156 % of control.
In the case of `COc1ccc2c(ccc3oc([N+](=O)[O-])cc32)c1`, the T/C [4] was 99 % of control, the T/C [1] was 72 % of control and the T/C [2] was 71 % of control. The T/C [5] was 36 % of control.
`CSc1ncc2ncn(C3OC(CO)C(O)C3O)c2n1` (stereo not given) was tested, and the T/C [4] was 56 % of control, the T/C [1] was 59 % of control and the T/C [2] was 37 % of control. The T/C [5] was 68 % of control.
For `CCOC(OCC)C(=O)OCC(=O)[C@]1(O)Cc2c(O)c3c(c(O)c2[C@@H](OC2CC(N)C(O)C(C)O2)C1)C(=O)c1c(OC)cccc1C3=O` (stereo not given in full), the T/C [3] was 27 % of control and 44 % of control.
`COc1cc(Cc2nccc3cc(OC)c(OC)cc23)c(C(C)=O)c(OC)c1` was tested, and the T/C (dose: 40.0 mg/kg/injection, schedule: Q01DX010 (sc), vehicle: saline) was 103 % of control, the T/C (dose: 80.0 mg/kg/injection, schedule: Q01DX010 (sc), vehicle: saline) was 103 % of control and the T/C (dose: 160.0 mg/kg/injection, schedule: Q01DX010 (sc), vehicle: saline) was 93 % of control.
In the case of `COc1cc(NCc2ccc3nc(N)nc(N)c3c2C)cc(OC)c1OC` (tested in a mixture with another compound), the T/C (dose: 10.0 mg/kg/injection, schedule: Q04DX003 (ip), vehicle: water) was 92 % of control, the T/C (dose: 20.0 mg/kg/injection, schedule: Q04DX003 (ip), vehicle: water) was 100 % of control and the T/C (dose: 40.0 mg/kg/injection, schedule: Q04DX003 (ip), vehicle: water) was 101 % of control. For the same compound, the T/C (dose: 80.0 mg/kg/injection, schedule: Q04DX003 (ip), vehicle: water) was 115 % of control and the T/C (dose: 160.0 mg/kg/injection, schedule: Q04DX003 (ip), vehicle: water) was 70 % of control.
